Assay results published in publication PMC8692581, “A specific inhibitor of ALDH1A3 regulates retinoic acid biosynthesis in glioma stem cells” (Communications Biology, 2021).

What was measured:
[1] = molecular target: T1, ALDH1A3 (Homo sapiens, UniProt P47895); assay: X-ray co-crystal structure ([…] Å); steady-state enzyme inhibition kinetics (IC50 […]); thermal shift MS in GSC-326 lysate; format: biochemical
T1 construct: full-length, N-term 6xHis tagged
T1 sequence (P47895 1-512): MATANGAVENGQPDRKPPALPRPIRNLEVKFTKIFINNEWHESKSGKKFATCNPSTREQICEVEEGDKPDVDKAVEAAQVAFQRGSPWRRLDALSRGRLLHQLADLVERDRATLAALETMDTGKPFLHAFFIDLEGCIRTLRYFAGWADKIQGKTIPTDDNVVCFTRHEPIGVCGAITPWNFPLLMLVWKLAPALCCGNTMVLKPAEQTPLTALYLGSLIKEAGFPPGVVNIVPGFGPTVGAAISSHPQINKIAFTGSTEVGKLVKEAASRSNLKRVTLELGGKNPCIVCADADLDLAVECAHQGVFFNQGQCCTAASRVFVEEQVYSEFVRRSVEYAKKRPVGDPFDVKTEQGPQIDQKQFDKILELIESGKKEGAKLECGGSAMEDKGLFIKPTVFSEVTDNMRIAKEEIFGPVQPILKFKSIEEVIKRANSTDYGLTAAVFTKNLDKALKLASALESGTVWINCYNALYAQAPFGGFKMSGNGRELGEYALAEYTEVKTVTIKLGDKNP

[2] = molecular target: T2, ALDH1A1 (Homo sapiens, UniProt P00352); assay: steady-state enzyme kinetics, NADH absorbance at […] nm ([…] activity retained at […] inhibitor); format: biochemical
T2 construct: full-length, N-term 6xHis tagged
T2 sequence (P00352 1-501): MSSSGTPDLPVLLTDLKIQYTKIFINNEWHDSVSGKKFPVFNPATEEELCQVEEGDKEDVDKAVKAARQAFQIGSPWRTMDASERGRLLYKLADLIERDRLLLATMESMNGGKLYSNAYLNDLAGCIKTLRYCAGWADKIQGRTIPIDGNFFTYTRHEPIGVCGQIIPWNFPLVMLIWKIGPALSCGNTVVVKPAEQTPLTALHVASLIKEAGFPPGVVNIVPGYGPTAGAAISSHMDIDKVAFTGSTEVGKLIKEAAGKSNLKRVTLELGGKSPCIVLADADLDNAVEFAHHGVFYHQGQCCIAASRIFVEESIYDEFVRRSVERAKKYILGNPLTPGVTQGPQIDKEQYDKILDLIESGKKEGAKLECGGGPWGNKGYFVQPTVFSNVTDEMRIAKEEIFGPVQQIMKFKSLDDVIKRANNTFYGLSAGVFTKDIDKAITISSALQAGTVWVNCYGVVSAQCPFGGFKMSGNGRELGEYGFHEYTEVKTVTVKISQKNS

[3] = molecular target: T1, ALDH1A3; assay: X-ray crystal structure ([…] Å), ternary with MCI-INI-3; crystals grown with […] NAD+; format: binding

Ki [1]	Ki [2]	Compound	X-ray crystal structure (2.8 Å), ternary with MCI-INI-3; crystals grown with 1 m [3]
0.55 ± 0.11 µM	78.2 ± 14.4 µM	COC(=O)c1cc(-c2ccc3c(c2)OCO3)nc2cc(-c3ccccc3)nn12 [MCI-INI-3]	–
–	–	NC(=O)c1ccc[n+]([C@@H]2O[C@H](COP(=O)([O-])OP(=O)(O)OC[C@H]3O[C@@H](n4cnc5c(N)ncnc54)[C@H](O)[C@@H]3O)[C@@H](O)[C@H]2O)c1 [NAD^+]	The ligands NAD^+ and MCI-INI-3 are shown as gray and black sticks.
